The term IC50 denotes the point on the concentration scale where inhibition reaches its midpoint. In general, Ki refers to a measure of affinity in units of concentration, obtained from inhibition or displacement. Read a high Ki as weaker binding.

The target of the series is T1, CYP1A2 (Homo sapiens, UniProt P05177).
T1 sequence (P05177 1-516): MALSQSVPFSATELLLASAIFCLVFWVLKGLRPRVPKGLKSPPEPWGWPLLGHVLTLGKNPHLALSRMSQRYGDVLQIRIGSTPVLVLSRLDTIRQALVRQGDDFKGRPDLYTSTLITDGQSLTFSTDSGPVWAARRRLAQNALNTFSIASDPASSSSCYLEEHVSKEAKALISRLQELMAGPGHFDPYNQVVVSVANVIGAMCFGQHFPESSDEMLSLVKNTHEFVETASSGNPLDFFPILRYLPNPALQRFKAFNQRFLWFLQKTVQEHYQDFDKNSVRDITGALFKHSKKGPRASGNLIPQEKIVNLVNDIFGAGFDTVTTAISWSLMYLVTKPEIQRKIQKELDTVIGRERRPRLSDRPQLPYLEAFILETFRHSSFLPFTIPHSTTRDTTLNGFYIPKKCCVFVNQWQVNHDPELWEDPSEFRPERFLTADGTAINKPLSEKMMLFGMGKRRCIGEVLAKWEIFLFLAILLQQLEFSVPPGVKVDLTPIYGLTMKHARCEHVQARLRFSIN
In words: CYP1A2-catalyzed phenacetin O-deethylation inhibition in pooled human liver microsomes (LC-MS/MS). In kind it is in vitro ADME. As to the method: The inhibitory potential (IC50 values) of honokiol on CYP activities was evaluated in pooled human liver microsomes using liquid chromatography-tandem mass spectrometry (LC-MS/MS). […] Honokiol was dissolved in acetonitrile. […] After a 3 min preincubation at 37 °C, the reactions were initiated by addition of an NADP generating system and incubated for 15 min at 37 °C in a shaking water bath. The reaction was then stopped by placement of the tubes on ice and adding 100 μL of ice-cold methanol containing internal standards (^13C2, ^15N-acetaminophen for acetaminophen and N-deethylamodiaquine, and d9-1-hydroxybufuralol for 4-hydroxydiclofenac, 4-hydroxybupropion, 7-hydroxycoumarin, 4-hydroxymephenytoin, 1'-hydroxybufuralol, and 1'-hydroxymidazolam). The incubation mixtures were then centrifuged at 13,000 × g for 4 min. All incubations were performed in triplicate, and average values were used.
The reaction was initiated by the addition of the cocktail containing seven CYP probe substrates and bupropion.
The metabolites formed from the seven CYP cocktail substrates were simultaneously determined according to our previously described LC-MS/MS method with minor modification; the concentration of 4-hydroxybupropion for CYP2B6 activity was quantified separately by LC-MS/MS. A tandem mass spectrometer (TSQ Quantum Access, Thermo Scientific, San Jose, CA, USA) coupled with a Nanospace SI-2 LC system (Tokyo, Japan) was used. The column and autosampler temperatures were 50 °C and 6 °C, respectively. The mass spectrometer was equipped with an electrospray ionization (ESI) source and operated in positive ion mode. The ESI source settings for ionization of the metabolites were as follows: capillary voltage, 4200 V; vaporizer temperature, 350 °C; capillary temperature 330 °C; sheath gas pressure, 35 psi; auxiliary gas pressure, 15 psi. Quantification was performed by selected reaction monitoring (SRM) of [M+H]^+ ions and the related product ions for each metabolite. […] Analytical data were processed using Xcalibur® software (Thermo Scientific).
The incubation mixtures were centrifuged at 13,000 × g for 4 min, and the supernatants were diluted as follows: dilution of 20 μL supernatant with 180 μL of 25% methanol for CYP2C8; dilution of 50 μL supernatant with 50 μL of water for CYP2C9, CYP2C19, CYP2D6, and CYP1A2; and dilution of 20 μL supernatant with 80 μL of water for CYP2B6. Aliquots (5 μL) of the diluted supernatants were then analyzed by LC-MS/MS.
The apparent kinetic parameters for inhibitory potential (Ki values) were estimated from the fitted curves using Enzyme Kinetics Ver. 1.1 software (Systat Software Inc.).
On the technique in general: Liver microsomes are vesicles of endoplasmic reticulum, rich in cytochrome P450 enzymes.

“Also recorded” adds a separate entry of the source. Where two headings read alike, the source gives them in different places.

As to `C=CCc1ccc(O)c(-c2ccc(O)c(CC=C)c2)c1` [honokiol, 2-(4-hydroxy-3-prop-2-enyl-phenyl)-4-prop-2-enyl-phenol], the IC50 is 2.1 µM (50 μM phenacetin (cocktail), pooled human liver microsomes (H161), read-out: IC50 (μM) of honokiol, no preincubation) and 4.7 µM (30 min preincubation in the presence of NADPH, pooled HLM (H161), read-out: IC50 (μM) of honokiol, with preincubation). The same compound showed a Ki (10–80 μM phenacetin, pooled HLM (H161)) of 1200 nM. In addition, where the note is “pooled HLM (H161)”, the Inhibition mode result is listed as “noncompetitively; also recorded: noncompetitive”.

Source of the values: PMC6269737, “Effect of Honokiol on Cytochrome P450 and UDP-Glucuronosyltransferase Enzyme Activities in Human Liver Microsomes” (Molecules, 2013).
